Test results as given in article PMC11345841, “Exploring 2-Sulfonylpyrimidine Warheads as Acrylamide Surrogates for Targeted Covalent Inhibition: A BTK Story” (Journal of Medicinal Chemistry, 2024).
Read-outs that look alike come from different tables or passages of the source. Blank lines part the entries; values can stand above or below the molecule they belong to.

Legend:
[1] = molecular target: T1, ABL1(F317L)-phosphorylated (Homo sapiens, UniProt P00519, F317L); assay: KINOMEscan ScanTK; type: binding
T1 construct: purchased Eurofins DiscoverX KINOMEscan (scanTK)

ABL1-nonphosphorylated = molecular target: T2, ABL1-nonphosphorylated (Homo sapiens, UniProt P00519); assay: KINOMEscan ScanTK; type: binding
T2 construct: purchased Eurofins DiscoverX KINOMEscan (scanTK)

ABL1-phosphorylated = molecular target: T3, ABL1-phosphorylated (Homo sapiens, UniProt P00519); assay: KINOMEscan ScanTK; type: binding
T3 construct: purchased Eurofins DiscoverX KINOMEscan (scanTK)

ABL2 = molecular target: T4, ABL2 (Homo sapiens, UniProt P42684); assay: KINOMEscan ScanTK; type: binding
T4 construct: purchased Eurofins DiscoverX KINOMEscan (scanTK)

BRK = molecular target: T5, BRK (Homo sapiens, UniProt Q13882); assay: KINOMEscan ScanTK; type: binding
T5 construct: purchased Eurofins DiscoverX KINOMEscan (scanTK)

CTK = molecular target: T6, CTK (Homo sapiens, UniProt P42679); assay: KINOMEscan ScanTK; type: binding
T6 construct: purchased Eurofins DiscoverX KINOMEscan (scanTK)
T6 sequence (P42679 1-507): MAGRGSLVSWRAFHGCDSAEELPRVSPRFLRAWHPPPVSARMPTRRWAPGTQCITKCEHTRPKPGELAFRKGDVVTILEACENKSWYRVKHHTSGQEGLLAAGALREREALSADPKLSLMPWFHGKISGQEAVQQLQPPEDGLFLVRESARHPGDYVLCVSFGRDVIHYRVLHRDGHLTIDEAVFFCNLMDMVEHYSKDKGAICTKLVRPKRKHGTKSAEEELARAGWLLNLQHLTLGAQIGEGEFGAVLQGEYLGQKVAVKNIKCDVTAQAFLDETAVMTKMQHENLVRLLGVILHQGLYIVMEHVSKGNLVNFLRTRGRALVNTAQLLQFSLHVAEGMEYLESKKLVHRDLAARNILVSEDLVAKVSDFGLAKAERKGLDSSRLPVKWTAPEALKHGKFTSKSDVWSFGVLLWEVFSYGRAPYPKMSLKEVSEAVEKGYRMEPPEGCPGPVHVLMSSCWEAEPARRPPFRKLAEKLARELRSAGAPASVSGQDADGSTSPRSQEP

[2] = molecular target: T7, EGFR(L747-E749del, A750P) (Homo sapiens, UniProt P00533, A750P/DEL747-749); assay: KINOMEscan ScanTK; type: binding
T7 construct: purchased Eurofins DiscoverX KINOMEscan (scanTK)

EPHA6 = molecular target: T8, EPHA6 (Homo sapiens, UniProt Q9UF33); assay: KINOMEscan ScanTK; type: binding
T8 construct: purchased Eurofins DiscoverX KINOMEscan (scanTK)
T8 sequence (Q9UF33 23-1036): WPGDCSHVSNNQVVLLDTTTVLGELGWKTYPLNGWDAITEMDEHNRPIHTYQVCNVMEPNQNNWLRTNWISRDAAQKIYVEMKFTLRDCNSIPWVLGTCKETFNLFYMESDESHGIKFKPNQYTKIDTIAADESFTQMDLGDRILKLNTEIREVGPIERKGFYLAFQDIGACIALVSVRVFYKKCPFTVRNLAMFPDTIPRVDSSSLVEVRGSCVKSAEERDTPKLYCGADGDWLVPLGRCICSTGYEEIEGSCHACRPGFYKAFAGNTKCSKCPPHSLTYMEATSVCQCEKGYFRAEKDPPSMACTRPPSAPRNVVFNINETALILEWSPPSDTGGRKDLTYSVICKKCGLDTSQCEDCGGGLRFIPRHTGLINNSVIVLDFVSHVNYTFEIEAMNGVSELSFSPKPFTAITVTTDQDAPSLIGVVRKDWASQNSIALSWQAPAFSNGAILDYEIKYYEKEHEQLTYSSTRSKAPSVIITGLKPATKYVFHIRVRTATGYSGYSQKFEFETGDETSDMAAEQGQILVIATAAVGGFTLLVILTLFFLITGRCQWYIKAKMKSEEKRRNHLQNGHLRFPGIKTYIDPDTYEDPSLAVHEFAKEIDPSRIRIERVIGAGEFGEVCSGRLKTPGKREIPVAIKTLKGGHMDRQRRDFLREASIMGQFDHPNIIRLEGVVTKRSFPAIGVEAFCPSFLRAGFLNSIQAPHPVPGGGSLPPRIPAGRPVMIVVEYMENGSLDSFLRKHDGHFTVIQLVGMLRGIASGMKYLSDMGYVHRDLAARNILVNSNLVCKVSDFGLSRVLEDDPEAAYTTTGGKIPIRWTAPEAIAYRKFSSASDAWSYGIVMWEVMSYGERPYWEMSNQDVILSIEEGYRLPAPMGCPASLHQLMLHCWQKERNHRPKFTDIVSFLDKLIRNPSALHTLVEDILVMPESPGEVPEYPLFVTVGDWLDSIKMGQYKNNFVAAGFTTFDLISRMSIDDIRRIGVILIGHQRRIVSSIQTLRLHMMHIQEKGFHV

ERBB4 = molecular target: T9, ERBB4 (Homo sapiens, UniProt Q15303); assay: KINOMEscan ScanTK; type: binding
T9 construct: purchased Eurofins DiscoverX KINOMEscan (scanTK)

FGFR3(G697C) = molecular target: T10, FGFR3(G697C) (Homo sapiens, UniProt P22607, G697C); assay: KINOMEscan ScanTK; type: binding
T10 construct: purchased Eurofins DiscoverX KINOMEscan (scanTK)

INSRR = molecular target: T11, INSRR (Homo sapiens, UniProt P14616); assay: KINOMEscan ScanTK; type: binding
T11 construct: purchased Eurofins DiscoverX KINOMEscan (scanTK)

MET(Y1235D) = molecular target: T12, MET(Y1235D) (Homo sapiens, UniProt P08581, Y1235D); assay: KINOMEscan ScanTK; type: binding
T12 construct: purchased Eurofins DiscoverX KINOMEscan (scanTK)

PDGFRB = molecular target: T13, PDGFRB (Homo sapiens, UniProt P09619); assay: KINOMEscan ScanTK; type: binding
T13 construct: purchased Eurofins DiscoverX KINOMEscan (scanTK)

TRKC = molecular target: T14, TRKC (Homo sapiens, UniProt Q16288); assay: KINOMEscan ScanTK; type: binding; conditions: TRKC
T14 construct: purchased Eurofins DiscoverX KINOMEscan (scanTK)

wild-type BTK = wild-type BTK (Homo sapiens, UniProt Q06187); assay: BTK in vitro activity assay (ADP-Glo, poly-Glu:Tyr phosphorylation, TCEP)

T10 sequence (P22607 23-806 G697C): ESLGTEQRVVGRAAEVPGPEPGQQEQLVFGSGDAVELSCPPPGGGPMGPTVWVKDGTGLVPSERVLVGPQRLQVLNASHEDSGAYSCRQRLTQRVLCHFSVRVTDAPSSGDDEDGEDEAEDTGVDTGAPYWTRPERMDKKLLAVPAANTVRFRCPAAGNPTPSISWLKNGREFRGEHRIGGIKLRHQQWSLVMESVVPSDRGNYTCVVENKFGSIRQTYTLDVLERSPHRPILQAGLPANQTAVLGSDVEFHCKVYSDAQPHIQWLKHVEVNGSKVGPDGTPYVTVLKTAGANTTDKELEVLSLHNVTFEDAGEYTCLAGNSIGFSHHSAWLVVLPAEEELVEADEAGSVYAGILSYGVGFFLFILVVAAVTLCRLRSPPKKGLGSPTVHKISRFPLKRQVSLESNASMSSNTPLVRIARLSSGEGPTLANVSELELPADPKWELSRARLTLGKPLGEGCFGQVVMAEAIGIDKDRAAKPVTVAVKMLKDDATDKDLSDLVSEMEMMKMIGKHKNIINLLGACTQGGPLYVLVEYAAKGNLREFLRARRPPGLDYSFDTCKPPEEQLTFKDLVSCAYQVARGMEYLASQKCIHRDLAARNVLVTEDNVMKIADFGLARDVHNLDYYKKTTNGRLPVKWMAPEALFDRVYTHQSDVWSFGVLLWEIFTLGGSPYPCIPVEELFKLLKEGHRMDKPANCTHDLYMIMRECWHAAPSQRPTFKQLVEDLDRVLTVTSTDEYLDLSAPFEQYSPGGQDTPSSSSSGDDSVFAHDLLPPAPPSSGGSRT
T2 sequence (P00519 whole entry): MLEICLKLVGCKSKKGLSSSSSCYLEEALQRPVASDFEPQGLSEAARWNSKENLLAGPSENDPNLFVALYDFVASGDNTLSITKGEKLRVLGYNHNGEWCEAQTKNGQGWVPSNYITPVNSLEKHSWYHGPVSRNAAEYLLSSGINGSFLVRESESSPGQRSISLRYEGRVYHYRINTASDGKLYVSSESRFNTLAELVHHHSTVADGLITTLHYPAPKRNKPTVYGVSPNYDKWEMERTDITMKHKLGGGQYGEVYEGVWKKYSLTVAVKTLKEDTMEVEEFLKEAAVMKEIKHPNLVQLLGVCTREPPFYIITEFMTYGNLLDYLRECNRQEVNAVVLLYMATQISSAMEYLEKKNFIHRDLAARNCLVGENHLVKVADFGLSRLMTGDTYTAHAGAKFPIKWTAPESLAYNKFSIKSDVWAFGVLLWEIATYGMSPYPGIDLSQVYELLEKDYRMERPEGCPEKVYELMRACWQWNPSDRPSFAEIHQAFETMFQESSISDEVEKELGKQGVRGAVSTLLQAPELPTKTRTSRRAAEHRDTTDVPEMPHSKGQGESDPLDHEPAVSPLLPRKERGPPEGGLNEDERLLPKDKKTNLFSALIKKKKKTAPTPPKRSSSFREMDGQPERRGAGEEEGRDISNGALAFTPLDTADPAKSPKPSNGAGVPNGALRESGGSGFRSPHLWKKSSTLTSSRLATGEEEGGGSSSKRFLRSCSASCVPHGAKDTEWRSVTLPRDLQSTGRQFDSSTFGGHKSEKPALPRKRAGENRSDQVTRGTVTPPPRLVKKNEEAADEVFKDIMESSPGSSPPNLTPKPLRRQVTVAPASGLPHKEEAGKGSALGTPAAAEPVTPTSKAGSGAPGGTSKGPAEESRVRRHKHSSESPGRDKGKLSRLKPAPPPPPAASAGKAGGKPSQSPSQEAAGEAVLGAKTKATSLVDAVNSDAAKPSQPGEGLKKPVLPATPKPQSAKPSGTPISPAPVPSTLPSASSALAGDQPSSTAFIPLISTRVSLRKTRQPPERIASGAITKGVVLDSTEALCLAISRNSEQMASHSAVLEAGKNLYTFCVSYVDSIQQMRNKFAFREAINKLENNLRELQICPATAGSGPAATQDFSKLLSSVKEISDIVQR
T3 sequence (P00519 whole entry): as above
T13 sequence (P09619 33-1106): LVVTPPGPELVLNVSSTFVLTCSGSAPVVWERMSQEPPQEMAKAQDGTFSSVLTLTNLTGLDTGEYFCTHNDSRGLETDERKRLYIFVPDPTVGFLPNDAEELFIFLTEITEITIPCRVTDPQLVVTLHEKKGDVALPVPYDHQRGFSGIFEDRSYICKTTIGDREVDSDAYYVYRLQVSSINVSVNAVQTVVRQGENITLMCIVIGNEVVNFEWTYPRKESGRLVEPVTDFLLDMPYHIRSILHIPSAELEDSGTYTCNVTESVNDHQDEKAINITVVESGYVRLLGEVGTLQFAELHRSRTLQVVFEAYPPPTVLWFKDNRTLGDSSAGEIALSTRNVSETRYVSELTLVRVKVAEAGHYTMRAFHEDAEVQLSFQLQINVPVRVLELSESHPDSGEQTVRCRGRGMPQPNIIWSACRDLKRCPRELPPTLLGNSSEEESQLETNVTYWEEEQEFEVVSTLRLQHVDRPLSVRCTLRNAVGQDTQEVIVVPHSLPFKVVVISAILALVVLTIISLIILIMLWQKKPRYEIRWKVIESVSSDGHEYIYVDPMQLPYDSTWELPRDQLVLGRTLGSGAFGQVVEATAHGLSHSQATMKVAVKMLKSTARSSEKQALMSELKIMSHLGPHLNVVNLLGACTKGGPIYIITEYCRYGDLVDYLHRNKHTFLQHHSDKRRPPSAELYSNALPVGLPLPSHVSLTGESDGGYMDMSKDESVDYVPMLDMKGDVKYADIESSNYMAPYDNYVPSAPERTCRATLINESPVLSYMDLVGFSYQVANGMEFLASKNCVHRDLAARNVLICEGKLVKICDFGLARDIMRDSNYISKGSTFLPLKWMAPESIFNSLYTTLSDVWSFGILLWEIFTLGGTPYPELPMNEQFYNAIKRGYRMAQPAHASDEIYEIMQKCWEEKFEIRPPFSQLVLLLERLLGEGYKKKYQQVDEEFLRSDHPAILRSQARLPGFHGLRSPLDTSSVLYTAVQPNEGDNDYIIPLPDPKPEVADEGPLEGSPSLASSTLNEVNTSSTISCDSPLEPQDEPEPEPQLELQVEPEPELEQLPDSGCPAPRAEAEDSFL
T7 sequence (P00533 with tags, fused parts or gaps DEL747-749/A750P limits assumed): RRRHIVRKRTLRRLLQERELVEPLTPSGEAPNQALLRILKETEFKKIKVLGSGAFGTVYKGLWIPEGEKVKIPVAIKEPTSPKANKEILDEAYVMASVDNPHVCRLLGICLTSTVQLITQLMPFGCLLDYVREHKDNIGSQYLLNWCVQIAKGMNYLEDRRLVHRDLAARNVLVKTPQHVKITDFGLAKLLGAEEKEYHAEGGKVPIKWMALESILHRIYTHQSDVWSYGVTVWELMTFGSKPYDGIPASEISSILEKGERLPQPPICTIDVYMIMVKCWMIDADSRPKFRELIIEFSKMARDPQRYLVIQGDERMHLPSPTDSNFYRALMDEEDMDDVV
T5 sequence (Q13882 whole entry): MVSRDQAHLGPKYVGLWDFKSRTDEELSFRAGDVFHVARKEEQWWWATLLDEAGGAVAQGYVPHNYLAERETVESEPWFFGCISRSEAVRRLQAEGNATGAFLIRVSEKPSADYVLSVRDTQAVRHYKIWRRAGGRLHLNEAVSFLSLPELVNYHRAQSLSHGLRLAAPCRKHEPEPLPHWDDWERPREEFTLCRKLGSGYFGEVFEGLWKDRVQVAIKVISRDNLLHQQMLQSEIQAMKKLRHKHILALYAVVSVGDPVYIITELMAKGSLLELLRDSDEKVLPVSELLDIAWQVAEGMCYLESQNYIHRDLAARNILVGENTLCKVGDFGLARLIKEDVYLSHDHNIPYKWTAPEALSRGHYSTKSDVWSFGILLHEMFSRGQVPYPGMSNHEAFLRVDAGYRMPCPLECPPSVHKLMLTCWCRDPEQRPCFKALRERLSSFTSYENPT
T14 sequence (Q16288 32-839): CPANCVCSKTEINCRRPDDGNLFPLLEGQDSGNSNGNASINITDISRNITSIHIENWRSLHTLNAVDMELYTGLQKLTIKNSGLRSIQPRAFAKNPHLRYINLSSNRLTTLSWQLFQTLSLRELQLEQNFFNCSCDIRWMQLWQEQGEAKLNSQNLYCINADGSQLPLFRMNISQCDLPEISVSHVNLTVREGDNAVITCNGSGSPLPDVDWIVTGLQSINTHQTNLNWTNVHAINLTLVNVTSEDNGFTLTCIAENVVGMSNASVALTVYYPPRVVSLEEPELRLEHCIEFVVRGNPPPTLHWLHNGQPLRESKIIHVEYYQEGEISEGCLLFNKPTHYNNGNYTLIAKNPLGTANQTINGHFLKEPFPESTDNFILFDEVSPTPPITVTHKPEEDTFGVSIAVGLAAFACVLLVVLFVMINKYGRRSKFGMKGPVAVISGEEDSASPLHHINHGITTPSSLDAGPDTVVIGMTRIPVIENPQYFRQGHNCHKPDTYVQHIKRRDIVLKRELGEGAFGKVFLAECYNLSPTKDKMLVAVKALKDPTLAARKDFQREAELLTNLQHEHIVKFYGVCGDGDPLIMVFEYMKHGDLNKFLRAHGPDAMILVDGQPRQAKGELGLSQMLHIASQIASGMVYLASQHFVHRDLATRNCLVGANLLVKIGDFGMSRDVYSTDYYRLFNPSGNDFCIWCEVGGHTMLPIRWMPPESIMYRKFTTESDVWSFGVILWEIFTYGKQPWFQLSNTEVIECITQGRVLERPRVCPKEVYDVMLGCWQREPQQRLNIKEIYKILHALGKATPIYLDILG
T1 sequence (P00519 whole entry F317L): as the sequence (P00519 whole entry) above, with F317L counted along it

difference in %Control from compound Ib at 1 µM ([1]; @1000nM): 49% | remaining binding at 1 µM ([1]; @1000nM, read-out: %Control): 86% | remaining binding at 1 µM ([1]; read-out: %Control @1000nM): 86% | difference in %Control from reference compound Ib at 1 µM (ABL1-nonphosphorylated; @1000nM): 36.5% | remaining binding at 1 µM (ABL1-nonphosphorylated; @1000nM, read-out: %Control): 45% | remaining binding at 1 µM (ABL1-nonphosphorylated; read-out: %Control @1000nM): 45% | difference in %Control from compound Ib at 1 µM (ABL1-phosphorylated; @1000nM): -3% | remaining binding at 1 µM (ABL1-phosphorylated; @1000nM, read-out: %Control): 57% | remaining binding at 1 µM (ABL1-phosphorylated; read-out: %Control @1000nM): 57% | difference in %Control from reference compound Ib at 1 µM (ABL2; @1000nM): 57% | remaining binding at 1 µM (ABL2; @1000nM, read-out: %Control): 98% | remaining binding at 1 µM (ABL2; read-out: %Control @1000nM): 98% | difference in %Control relative to compound Ib at 1 µM (BRK; @1000nM): 52.7% | remaining binding at 1 µM (BRK; @1000nM, read-out: %Control): 54% | remaining binding at 1 µM (BRK; read-out: %Control @1000nM): 54% | difference in %Control versus compound Ib at 1 µM (CTK; @1000nM): -6% | remaining binding at 1 µM (CTK; @1000nM, read-out: %Control): 74% | remaining binding at 1 µM (CTK; read-out: %Control @1000nM): 74% | difference in %Control versus compound Ib at 1 µM ([2]; @1000nM): 63.9% | remaining binding at 1 µM ([2]; @1000nM, read-out: %Control): 67% | remaining binding at 1 µM ([2]; read-out: %Control @1000nM): 67% | difference in %Control from compound Ib at 1 µM (EPHA6; @1000nM): 10% | remaining binding at 1 µM (EPHA6; @1000nM, read-out: %Control): 87% | remaining binding at 1 µM (EPHA6; read-out: %Control @1000nM): 87% | difference in %Control versus compound Ib at 1 µM (ERBB4; @1000nM): 5.15% | remaining binding at 1 µM (ERBB4; @1000nM, read-out: %Control): 5.2% | remaining binding at 1 µM (ERBB4; read-out: %Control @1000nM): 5.2% | difference in %Control versus compound Ib at 1 µM (FGFR3(G697C); @1000nM): 50% | remaining binding at 1 µM (FGFR3(G697C); @1000nM, read-out: %Control): 90% | remaining binding at 1 µM (FGFR3(G697C); read-out: %Control @1000nM): 90% | difference in %Control versus compound Ib at 1 µM (INSRR; @1000nM): -9% | remaining binding at 1 µM (INSRR; @1000nM, read-out: %Control): 87% | remaining binding at 1 µM (INSRR; read-out: %Control @1000nM): 87% | remaining binding at 1 µM (MET(Y1235D); @1000nM, read-out: %Control): 100% | remaining binding at 1 µM (MET(Y1235D); read-out: %Control @1000nM): 100% | remaining binding at 1 µM (PDGFRB; @1000nM, read-out: %Control): 87% | remaining binding at 1 µM (PDGFRB; read-out: %Control @1000nM): 87% | difference in %Control versus compound Ib at 1 µM (TRKC; @1000nM): -18% | remaining binding at 1 µM (TRKC; @1000nM, read-out: %Control): 77% | remaining binding at 1 µM (TRKC; read-out: %Control @1000nM): 77%
Compound: CCOC(=O)c1cnc(S(C)(=O)=O)nc1N1CCC[C@@H](n2nc(-c3ccc(Oc4ccccc4)cc3)c3c(N)ncnc32)C1 [Compound 8c, Ethyl (R)-4-(3-(4-Amino-3-(4-phenoxyphenyl)-1H-pyrazolo[3,4-d]pyrimidin-1-yl)piperidin-1-yl)-2-(methylsulfonyl)pyrimidine-5-carboxylate]

difference in %Control from compound Ib at 1 µM ([1]; @1000nM): 15% | remaining binding at 1 µM ([1]; @1000nM, read-out: %Control): 52% | remaining binding at 1 µM ([1]; read-out: %Control @1000nM): 52% | difference in %Control from reference compound Ib at 1 µM (ABL1-nonphosphorylated; @1000nM): 38.5% | remaining binding at 1 µM (ABL1-nonphosphorylated; @1000nM, read-out: %Control): 47% | remaining binding at 1 µM (ABL1-nonphosphorylated; read-out: %Control @1000nM): 47% | difference in %Control from compound Ib at 1 µM (ABL1-phosphorylated; @1000nM): 20% | remaining binding at 1 µM (ABL1-phosphorylated; @1000nM, read-out: %Control): 80% | remaining binding at 1 µM (ABL1-phosphorylated; read-out: %Control @1000nM): 80% | difference in %Control from reference compound Ib at 1 µM (ABL2; @1000nM): 29% | remaining binding at 1 µM (ABL2; @1000nM, read-out: %Control): 70% | remaining binding at 1 µM (ABL2; read-out: %Control @1000nM): 70% | difference in %Control relative to compound Ib at 1 µM (BRK; @1000nM): 13.7% | remaining binding at 1 µM (BRK; @1000nM, read-out: %Control): 15% | remaining binding at 1 µM (BRK; read-out: %Control @1000nM): 15% | difference in %Control versus compound Ib at 1 µM (CTK; @1000nM): -13% | remaining binding at 1 µM (CTK; @1000nM, read-out: %Control): 67% | remaining binding at 1 µM (CTK; read-out: %Control @1000nM): 67% | difference in %Control versus compound Ib at 1 µM ([2]; @1000nM): 79.9% | remaining binding at 1 µM ([2]; @1000nM, read-out: %Control): 83% | remaining binding at 1 µM ([2]; read-out: %Control @1000nM): 83% | difference in %Control from compound Ib at 1 µM (EPHA6; @1000nM): 23% | remaining binding at 1 µM (EPHA6; @1000nM, read-out: %Control): 100% | remaining binding at 1 µM (EPHA6; read-out: %Control @1000nM): 100% | difference in %Control versus compound Ib at 1 µM (ERBB4; @1000nM): 64% | remaining binding at 1 µM (ERBB4; @1000nM, read-out: %Control): 64% | remaining binding at 1 µM (ERBB4; read-out: %Control @1000nM): 64% | difference in %Control versus compound Ib at 1 µM (FGFR3(G697C); @1000nM): 57% | remaining binding at 1 µM (FGFR3(G697C); @1000nM, read-out: %Control): 97% | remaining binding at 1 µM (FGFR3(G697C); read-out: %Control @1000nM): 97% | difference in %Control versus compound Ib at 1 µM (INSRR; @1000nM): -2% | remaining binding at 1 µM (INSRR; @1000nM, read-out: %Control): 94% | remaining binding at 1 µM (INSRR; read-out: %Control @1000nM): 94% | remaining binding at 1 µM (MET(Y1235D); @1000nM, read-out: %Control): 100% | remaining binding at 1 µM (MET(Y1235D); read-out: %Control @1000nM): 100% | remaining binding at 1 µM (PDGFRB; @1000nM, read-out: %Control): 27% | remaining binding at 1 µM (PDGFRB; read-out: %Control @1000nM): 27% | difference in %Control versus compound Ib at 1 µM (TRKC; @1000nM): -17% | remaining binding at 1 µM (TRKC; @1000nM, read-out: %Control): 78% | remaining binding at 1 µM (TRKC; read-out: %Control @1000nM): 78% | IC50 (wild-type BTK): 24 ± 2 nM | remaining activity at 0.1 µM (wild-type BTK; read-out: Remaining BTK activity (%)): 4 ± 1%
Compound: Cc1cnc(S(C)(=O)=O)nc1N1CCCC(n2nc(-c3ccc(Oc4ccccc4)cc3)c3c(N)ncnc32)C1 (stereo not shown) [Compound 8a, 1-(1-(5-Methyl-2-(methylsulfonyl)pyrimidin-4-yl)piperidin-3-yl)-3-(4-phenoxyphenyl)-1H-pyrazolo[3,4-d]pyrimidin-4-amine]
